Test results from US20220110933A1, “METHODS OF TREATING DISEASE WITH MAGL INHIBITORS” (H. Lundbeck A/S, priority 2019, published 2022).

Columns and labels:
[1] = test system: L-DOPA induced dyskinesia in MPTP-lesioned cynomolgus macaques; assay: MPTP-lesioned macaque model of L-DOPA induced dyskinesia (LID); type: in vivo, cynomolgus macaque; conditions: for reduction in median peak-dose dyskinesia after L-DOPA administration: single dose 2 h before L-DOPA, 0-2 h post L-DOPA
Procedure: The study utilized 8 female MPTP-lesioned cynomolgus macaques (10-15 years in age) that have received chronic repeat-treatment with L-DOPA and manifest stable and reproducible dyskinesia, of choreic and dystonic nature, in response to subsequent L-DOPA treatments.
A MGLL inhibitor, Compound 21, (3, 10 and 30 mg/kg), reference drug amantadine (10 mg/kg) and vehicle were administered by oral gavage as a single dose 2 h before a high-dose of L-DOPA (administered as Madopar™). The L-DOPA dose individualized for each animal is one that induced robust and reproducible anti-parkinsonian effects lasting ˜3-4 h but compromised by disabling dyskinesia. The animals were video-recorded for a 6 h period following L-DOPA administration and the effects of each treatment on dyskinesia, parkinsonian disability, duration and quality of anti-parkinsonian benefit (on-time) were scored blinded by a neurologist. Dyskinesia was scored using the non-human primate dyskinesia rating scale (NHPDysRS) and disability was scored using the monkey parkinsonian disability rating scale (mPDRS).
The study design was an ascending dose crossover with all animals receiving each treatment in the order of vehicle, 10 mg/kg amantadine, 3 mg/kg Compound 21, 10 mg/kg Compound 21, and 30 mg/kg Compound 21.

[2] = Plasma exposure and half-life in MPTP-lesioned macaques; type: in vivo, cynomolgus macaque; conditions: cynomolgus monkey

Row | SMILES | dyskinesia in the 1-2 h post L-DOPA interval ([1]; 10 mg/kg p.o.) | reduction in median peak-dose dyskinesia after L-DOPA administration ([1]; 10 mg/kg p.o.) [%] | reduction in median peak-dose dyskinesia after L-DOPA administration ([1]; 30 mg/kg p.o.) [%] | statistical significance of reduction in 0-2 hour total dyskinesia scores ([1]; 3, 10 and 30 mg/kg p.o.) | median peak dose dyskinesia induced by L-DOPA administration ([1]; 3, 10 and 30 mg/kg p.o., 0-2 h post L-DOPA totals) | anti-dyskinetic effects (overall) ([1]; MPTP-lesioned macaque model of L-DOPA induced dyskinesia) | benefit on dystonia and chorea ([1]; data not shown) | therapeutic effects on median dyskinesia ratings compared with amantadine ([1]; versus amantadine 10 mg/kg) | half-life ([2]; in vivo) [h] | parkinsonian disability ([1]; 10 mg/kg p.o., 0-2 h post L-DOPA administration totals, P<0.05) | concentration at 2 h ([2]; plasma, oral, 10 mg/kg p.o., 2 h post-dose) [ng/mL] | concentration at 8 h ([2]; plasma, oral, 10 mg/kg p.o., 8 h post-dose) [ng/mL]
1 | O=C(OC(C(F)(F)F)C(F)(F)F)N1CCN(Cc2ccc(Cl)cc2N2CC3CCC(C2)O3)CC1 [Compound 21, 1,1,1,3,3,3-Hexafluoropropan-2-yl 4-(2-(8-oxa-3-azabicyclo[3.2.1]octan-3-yl)-4-chlorobenzyl)piperazine-1-carboxylate] | significant reduction | 45 | 35 | did not reach statistical significance | dose-dependently reduced | robust anti-dyskinetic effects | evidence of benefit on both dystonia and chorea | of greater magnitude | 16 to 34 | – | – | –
2 | NC12CC3CC(CC(C3)C1)C2 [Amantadine, amantadine, reference compound] | – | 29 | – | – | – | – | – | – | – | mild and statistically significant worsening | 1300 | 1500
